In patent US20230017045A1, “PYRIDINE AND PYRIMIDINE CARBOXYLATE HERBICIDES AND METHODS OF USE THEREOF” (Dow AgroSciences LLC, priority 2017, published 2023):
Where two headings read alike, the source gives them in different places.

Test system: test plant species
Experiment: Post-emergent herbicidal activity test (greenhouse, foliar spray, visual growth reduction)
Type: in vivo
Conditions: post-emergence, 336 h, 140 g ai/ha, 14 days after application
Method in brief: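 Plants grown in greenhouse (15 h photoperiod, 23-29° C day/22-28° C night) to first or second true leaf stage were sprayed overhead with compound in acetone/water/isopropanol/DMSO/crop oil/X-77 carrier at 187 L/ha. Injury was scored visually after 14 d on a 0-100% scale versus solvent-blank and untreated controls.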

[1] = ALOMY: blackgrass (Alopecurus myosuroides), read-out: Visual Growth Reduction (%) 14 Days After Application, ALOMY
[2] = AMARE: redroot pigweed (Amaranthus retroflexus), read-out: Visual Growth Reduction (%) 14 Days After Application, AMARE
[3] = AVEFA: wild oat (Avena fatua), read-out: Visual Growth Reduction (%) 14 Days After Application, AVEFA
[4] = CHEAL: lambsquarters (Chenopodium album), read-out: Visual Growth Reduction (%) 14 Days After Application, CHEAL
[5] = CIRAR: canada thistle (Cirsium arvense), read-out: Visual Growth Reduction (%) 14 Days After Application, CIRAR
[6] = CYPES: yellow nutsedge (Cyperus esculentus), read-out: Visual Growth Reduction (%) 14 Days After Application, CYPES
[7] = DIGSA: crabgrass (Digitaria sanguinalis), read-out: Visual Growth Reduction (%) 14 Days After Application, DIGSA
[8] = ECHCG: barnyardgrass (Echinochloa crus-galli), read-out: Visual Growth Reduction (%) 14 Days After Application, ECHCG
[9] = IPOHE: ivy-leaf morning glory (Ipomoea hederacea), read-out: Visual Growth Reduction (%) 14 Days After Application, IPOHE
[10] = KCHSC: kochia (Bassia scoparia), read-out: Visual Growth Reduction (%) 14 Days After Application, KCHSC
[11] = ORYSA: rice (Oryza sativa), read-out: Visual Growth Reduction (%) 14 Days After Application, ORYSA
[12] = SETFA: giant foxtail (Setaria faberi), read-out: Visual Growth Reduction (%) 14 Days After Application, SETFA
[13] = SORVU: grain sorghum (Sorghum vulgare), read-out: Visual Growth Reduction (%) 14 Days After Application, SORVU
[14] = TRZAS: wheat, spring (Triticum aestivum), read-out: Visual Growth Reduction (%) 14 Days After Application, TRZAS
[15] = STEME: common chickweed (Stellaria media), read-out: Visual Growth Reduction (%) 14 Days After Application, STEME

| SMILES | pest or weed control at 140 g/ha [1] [%] | pest or weed control at 140 g/ha [2] [%] | pest or weed control at 140 g/ha [3] [%] | pest or weed control at 140 g/ha [4] [%] | pest or weed control at 140 g/ha [5] [%] | pest or weed control at 140 g/ha [6] [%] | pest or weed control at 140 g/ha [7] [%] | pest or weed control at 140 g/ha [8] [%] | pest or weed control at 140 g/ha [9] [%] | pest or weed control at 140 g/ha [10] [%] | pest or weed control at 140 g/ha [11] [%] | pest or weed control at 140 g/ha [12] [%] | pest or weed control at 140 g/ha [13] [%] | pest or weed control at 140 g/ha [14] [%] | pest or weed control at 140 g/ha [15] [%] |
| --- | --- | --- | --- | --- | --- | --- | --- | --- | --- | --- | --- | --- | --- | --- | --- |
| COC(=O)c1nc(-c2ccc(C(F)(F)F)c(F)c2F)ccc1Cl [F110, Methyl 3-chloro-6-(2,3-difluoro-4-(trifluoromethyl)phenyl)picolinate] | 0 to 29 | 85 to 94 | 0 to 29 | 75 to 84 | 85 to 94 | 0 to 29 | 0 to 29 | 0 to 29 | 95 to 100 | 0 to 29 | 0 to 29 | 0 to 29 | 60 to 74 | 0 to 29 | – |
| CC(F)(F)c1ccc(-c2ccc(Cl)c(C(=O)O)n2)c(Cl)c1 [F111, 3-Chloro-6-(2-chloro-4-(1,1-difluoroethyl)phenyl) picolinic acid] | 60 to 74 | 95 to 100 | 60 to 74 | 95 to 100 | 95 to 100 | 0 to 29 | 85 to 94 | 95 to 100 | 95 to 100 | 95 to 100 | 0 to 29 | 75 to 84 | 85 to 94 | 75 to 84 | – |
| COC(=O)c1nc(-c2ccc(C(C)(F)F)cc2Cl)ccc1Cl [F112, Methyl 3-chloro-6-(2-chloro-4-(1,1-difluoroethyl)phenyl) picolinate] | 60 to 74 | 95 to 100 | 95 to 100 | 95 to 100 | 95 to 100 | 45 to 59 | 85 to 94 | 75 to 84 | 95 to 100 | 95 to 100 | 0 to 29 | 60 to 74 | 95 to 100 | 60 to 74 | – |
| COC(=O)c1nc(-c2ccc(C(F)(F)F)cc2Cl)ccc1F [F113, methyl 6-(2-chloro-4-(trifluoromethyl)phenyl)-3-fluoropicolinate] | 0 to 29 | 95 to 100 | 45 to 59 | 95 to 100 | 85 to 94 | 0 to 29 | 85 to 94 | 75 to 84 | 95 to 100 | 60 to 74 | 30 to 44 | 75 to 84 | 85 to 94 | 0 to 29 | 0 to 29 |
| COC(=O)c1nc(-c2ccc(C(F)(F)F)nc2)ccc1Cl [F114, Methyl 5-chloro-6′-(trifluoromethyl)-[2,3′-bipyridine]-6-carboxylate] | 0 to 29 | 0 to 29 | 0 to 29 | 0 to 29 | 0 to 29 | 0 to 29 | 0 to 29 | 0 to 29 | 30 to 44 | 0 to 29 | 0 to 29 | 0 to 29 | 0 to 29 | 0 to 29 | 0 to 29 |
